From paper PMC10529594, “Strasseriolides display in vitro and in vivo activity against trypanosomal parasites and cause morphological and size defects in Trypanosoma cruzi” (PLOS Neglected Tropical Diseases, 2023)
“And” between values parts separate entries of the source, which are not always exact repeats. Equal values may be shown once. Read-outs that look alike come from different tables or passages of the source.

How the values were obtained:
[1] = test system: intracellular T. cruzi amastigotes; assay: Rate of kill, intracellular T. cruzi amastigotes (CPRG, 96-well); type: cell-based, Trypanosoma cruzi; conditions: for EC90/EC50 / Hill slope / EC50: Amastigotes; for Growth inhibition (%), individual replicates / inhibition at 50 µM: T. cruzi amastigotes, 50 µM; for inhibition at 50 µM / EC50: Trypanosoma cruzi
Procedure: For rate of kill experiments, in vitro activity against intracellular T. cruzi amastigotes was analyzed at early time points: 24, 48 and 72 hours. The standard colorimetric transgenic assay was established in a 96-well format, with serial dilutions of compounds and 0.05% as the final maximal DMSO percentage per well. In these experiments L6 host cells were included as negative controls and CPRG conversion was monitored at 585 nm using a Versamax microplate reader (Molecular devices).

[2] = test system: T. cruzi epimastigotes; assay: Microscopy analysis of T. cruzi epimastigotes (DAPI cell cycle, DIC morphology); type: cell-based, Trypanosoma cruzi; conditions: for % Cells 0N1K, Average / % Cells 1N1K1F, Average / % Cells 1N*1K*1F, Average / % Cells 1N*2K2F, Average / % Cells 2N1K, Average / % Cells 2N2K2F, Average / % Cells Other, Average / % Cells 0N1K, individual replicates / % Cells 1N1K1F, individual replicates / % Cells 1N*1K*1F, individual replicates / % Cells 1N*2K2F, individual replicates / % Cells 2N1K, individual replicates / % Cells 2N2K2F, individual replicates / % Cells Other, individual replicates: 72-hour drug exposure, DAPI staining
Procedure: For morphological phenotypic analysis and further confirmation of cell cycle analysis by FACS, T. cruzi epimastigotes were grown for 72 hours in a 6-well plate in the presence and absence of drugs. Briefly, 1 × 10^6 parasites of each condition were harvested and fixed in 4% p-formaldehyde at 4°C for 20 minutes, washed twice with cold PBS, and placed on poly-L-lysine-coated slides. Followed by dehydration in methanol, parasite samples were stained and mounted with DAPI Prolong. Digital images were acquired with a Leica DMi8 microscope in Tile Scan mode with […] excitation to quantify DAPI stained nuclei and kinetoplasts of the parasite population. Transmitted light microscopy was used to acquire differential interference contrast (DIC) images (> 80 individual cells in each of two independent experiments).

[3] = test system: T. cruzi trypomastigotes; assay: T. cruzi trypomastigote viability / rate of action assay (CellTiter-Glo bioluminescence); type: cell-based, Trypanosoma cruzi; conditions: for EC50: Trypanosoma cruzi; for EC90/EC50 / Hill slope: Trypomastigotes
Procedure: (§1) Tulahuen T. cruzi trypomastigotes were recovered 6 days post infection from the supernatant of harvested infected L6 cells cultures after 3 hours at 37°C. 90 μL of parasite culture at a density of 5 × 10^6 cells in RPMI 1640 media were dispensed into 96 Nunc flat bottom assay plates containing 10 μL of each compound.
Parasite viability was assessed upon 24, 48 and 72 hour incubation at 37°C in 5% CO2 by adding 50 μL of CellTiter-Glo viability reagent to white 96-well microplates. After signal stabilization, bioluminescence was read. Compound concentrations ranged from 0.1 μM to 50 μM and final maximal DMSO percentage in the well was 0.05%. Results were normalized to […] control columns in each plate.

[4] = test system: Plasmodium berghei; design: method as in PMID 34865639; conditions: Plasmodium berghei murine model; cited from earlier work
[5] = test system: T. b. brucei 427 bloodstream forms; assay: Resazurin-based T. b. brucei assay; type: cell-based; conditions: Trypanosoma brucei, 72 h, read-out: EC50 T. brucei
Procedure: Parasites strains adapted to culture in vitro were used. T. b. brucei Lister 427 bloodstream form parasites (information about the identity and genealogy of this strain is available at The Rockefeller University website) were grown in HMI-9 medium supplemented with 10% heat-inactivated fetal bovine serum (iFBS).
Cells in logarithmic phase of growth were added using a Multidrop dispenser (45 μL, 500 bloodstream T. b. brucei parasites per well) to 384-well Corning assay plates already containing 5 μL of each compound and controls, and incubated for 72 hours at 37°C. 10 μL of resazurin were added per well, and the plates were further incubated for 6 hours at 37°C. The final fluorescence was determined at 550–590 nm. Pentamidine at 40 nM and 0.0067% DMSO were used as […] growth controls, respectively.

[6] = test system: T. cruzi Tulahuen C4 trypomastigotes; assay: T. cruzi trypomastigote viability assay (resazurin fluorescence); type: cell-based, Trypanosoma cruzi; conditions: Tulahuen C4, 72 hours at 37°C
Procedure: as §1
In the fluorescence assay, plates were incubated for 24 and 48 hours after which 10 μL of the resazurin solution were added to each well. Plates were further incubated for 24 hours and fluorescence was measured at 550/590 nm using a Tecan Infinite 200 microplate reader. […] Final maximal DMSO percentage in the well was 0.1% and compound concentrations ranged from 0.2 to 100 μM.

[7] = design: method as in PMID 34865639; conditions: cited from earlier work

## C/C1=C\[C@H](C)C(=O)C[C@@H](O)/C(C)=C/[C@H](C)C[C@@H](C)CC[C@@H]([C@@H](C)C(=O)O)OC(=O)[C@@H](C)C1 [Strasseriolide C, strasseriolide C]
[1]; 24 h
  EC90/EC50: 3.78
  Hill slope: 1.70
  EC50: 10.3 µM
[1]; 48 h
  EC90/EC50: 2.65
  Hill slope: 2.31
  EC50: 5.25 µM
[1]; 72 h
  EC90/EC50: 2.43
  Hill slope: 2.48
  EC50: 5.3 µM
[1]; 24 h, single replicates
  Growth inhibition (%), individual replicates: 74.7423%
[1]; 48 h, single replicates
  Growth inhibition (%), individual replicates: 94.7649% and 95.5652%
[1]; 72 h, single replicates
  Growth inhibition (%), individual replicates: 98.6747% and 99.1566%
[1]; 24 h, 24 h, average, read-out: Growth inhibition (%), Average
  inhibition at 50 µM: 73.4%
[1]; 24 h, 24 h, single replicates, read-out: Growth inhibition (%), individual replicates
  inhibition at 50 µM: 72.7%
[1]; 48 h, 48 h, average, read-out: Growth inhibition (%), Average
  inhibition at 50 µM: 94.9%
[1]; 48 h, 48 h, single replicates, read-out: Growth inhibition (%), individual replicates
  inhibition at 50 µM: 94.2%
[1]; 72 h, 72 h, average, read-out: Growth inhibition (%), Average
  inhibition at 50 µM: 98.8%
[1]; 72 h, 72 h, single replicates, read-out: Growth inhibition (%), individual replicates
  inhibition at 50 µM: 98.6%
[2]; EC30, average
  % Cells 0N1K, Average: 0.9709%
  % Cells 1N1K1F, Average: 66.0194%
  % Cells 1N*1K*1F, Average: 4.854%
  % Cells 1N*2K2F, Average: 2.913%
  % Cells 2N1K, Average: 4.854%
  % Cells 2N2K2F, Average: 19.4175%
  % Cells Other, Average: 0.9709%
[2]; EC30, single replicates
  % Cells 0N1K, individual replicates: 0.9709%
  % Cells 1N1K1F, individual replicates: 70.8738% and 61.165%
  % Cells 1N*1K*1F, individual replicates: 4.854%
  % Cells 1N*2K2F, individual replicates: 2.913%
  % Cells 2N1K, individual replicates: 6.796% and 2.913%
  % Cells 2N2K2F, individual replicates: 13.5922% and 25.2427%
  % Cells Other, individual replicates: 0% and 1.942%
[2]; EC70, average
  % Cells 0N1K, Average: 3.4269%
  % Cells 1N1K1F, Average: 57.8968%
  % Cells 1N*1K*1F, Average: 5.388%
  % Cells 1N*2K2F, Average: 3.4269%
  % Cells 2N1K, Average: 2.951%
  % Cells 2N2K2F, Average: 24.9207%
  % Cells Other, Average: 2.961%
[2]; EC70, single replicates
  % Cells 0N1K, individual replicates: 2.9703% and 3.8835%
  % Cells 1N1K1F, individual replicates: 63.3663% and 52.4272%
  % Cells 1N*1K*1F, individual replicates: 4.9505% and 5.825%
  % Cells 1N*2K2F, individual replicates: 2.9703% and 3.8835%
  % Cells 2N1K, individual replicates: 3.9604% and 1.942%
  % Cells 2N2K2F, individual replicates: 16.8317% and 33.0097%
  % Cells Other, individual replicates: 4.9505% and 0.9709%
[2]; 72 h, at EC70
  morphological changes (DIC microscopy): smaller and rounded parasites
[3]; 24 h, 0.0976562 µM, untreated 165925
  RLU Average, trypomastigote viability: 163790 RLU
[3]; 24 h, 0.195312 µM, untreated 165925
  RLU Average, trypomastigote viability: 163102 RLU
[3]; 24 h, 0.390625 µM, untreated 165925
  RLU Average, trypomastigote viability: 158420 RLU
[3]; 24 h, 0.78125 µM, untreated 165925
  RLU Average, trypomastigote viability: 147331 RLU
[3]; 24 h, 1.5625 µM, untreated 165925
  RLU Average, trypomastigote viability: 130562 RLU
[3]; 24 h, 3.125 µM, untreated 165925
  RLU Average, trypomastigote viability: 103284 RLU
[3]; 24 h, 6.25 µM, untreated 165925
  RLU Average, trypomastigote viability: 45263 RLU
[3]; 24 h, 12.5 µM, untreated 165925
  RLU Average, trypomastigote viability: 26648 RLU
[3]; 24 h, 25 µM, untreated 165925
  RLU Average, trypomastigote viability: 23620 RLU
[3]; 24 h, 50 µM, untreated 165925
  RLU Average, trypomastigote viability: 23277 RLU
[3]; 48 h, 0.0976562 µM, untreated 141819
  RLU Average, trypomastigote viability: 140243 RLU
[3]; 48 h, 0.195312 µM, untreated 141819
  RLU Average, trypomastigote viability: 138438 RLU
[3]; 48 h, 0.390625 µM, untreated 141819
  RLU Average, trypomastigote viability: 137289 RLU
[3]; 48 h, 0.78125 µM, untreated 141819
  RLU Average, trypomastigote viability: 133179 RLU
[3]; 48 h, 1.5625 µM, untreated 141819
  RLU Average, trypomastigote viability: 131008 RLU
[3]; 48 h, 3.125 µM, untreated 141819
  RLU Average, trypomastigote viability: 112009 RLU
[3]; 48 h, 6.25 µM, untreated 141819
  RLU Average, trypomastigote viability: 31326 RLU
[3]; 48 h, 12.5 µM, untreated 141819
  RLU Average, trypomastigote viability: 8227 RLU
[3]; 48 h, 25 µM, untreated 141819
  RLU Average, trypomastigote viability: 5426 RLU
[3]; 48 h, 50 µM, untreated 141819
  RLU Average, trypomastigote viability: 4626 RLU
[3]; 72 h, 0.0976562 µM, untreated 100126
  RLU Average, trypomastigote viability: 97547 RLU
[3]; 72 h, 0.195312 µM, untreated 100126
  RLU Average, trypomastigote viability: 99515 RLU
[3]; 72 h, 0.390625 µM, untreated 100126
  RLU Average, trypomastigote viability: 99635 RLU
[3]; 72 h, 0.78125 µM, untreated 100126
  RLU Average, trypomastigote viability: 98868 RLU
[3]; 72 h, 1.5625 µM, untreated 100126
  RLU Average, trypomastigote viability: 97232 RLU
[3]; 72 h, 3.125 µM, untreated 100126
  RLU Average, trypomastigote viability: 91895 RLU
[3]; 72 h, 6.25 µM, untreated 100126
  RLU Average, trypomastigote viability: 17556 RLU
[3]; 72 h, 12.5 µM, untreated 100126
  RLU Average, trypomastigote viability: 4224 RLU
[3]; 72 h, 25 µM, untreated 100126
  RLU Average, trypomastigote viability: 2493 RLU
[3]; 72 h, 50 µM, untreated 100126
  RLU Average, trypomastigote viability: 1583 RLU
[3]; 24 h
  EC50: 3.29 µM
  EC90/EC50: 3.20
  Hill slope: 2.11
[3]; 48 h
  EC50: 4.45 µM
  EC90/EC50: 1.72
  Hill slope: 4.10
[3]; 72 h
  EC50: 4.77 µM
  EC90/EC50: 1.42
  Hill slope: 6.31
[3]; 48 h, listed as C
  Hill slope: 4.1
[3]; 48 h, listed as strasseriolide C
  EC90/EC50: 1.7
[3]; 72 h, listed as C
  Hill slope: 6.3
[3]; 72 h, listed as strasseriolide C
  EC90/EC50: 1.4
[4]
  in vivo antiprotozoal activity: exhibit in vivo antiprotozoal activity
[5]
  EC50: 59.6 µM
[6]; Trypanosoma cruzi, TULAHUEN, 72 h
  EC50: 3.8 µM
[6]
  EC50: 3.84 µM
[7]
  liver microsome clearance: medium
